Common to all, as to assay type: functional, cell-based
For assay [1], the system named is HL-60. Put plainly: Cytotoxicity against human HL-60 cells. The settings on record: Homo sapiens, HL-60; read-out: IC50.
Assay [2] concerns PC-3. As to the kind of experiment: Cytotoxicity against human PC-3 cells.
Assay [3] relates to SGC-7901. Put plainly: Cytotoxicity against human SGC-7901 cells.
Assay [4] deals with MG-63. As to the kind of experiment: Cytotoxicity against human MG-63 cells.
In assay [5] the test system is MCF7. As to the kind of experiment: Cytotoxicity against human MCF7 cells measured after 24 hrs by MTT assay. The settings on record: MCF7, 24 h.
In assay [6] the test system is A549. Put plainly: Cytotoxicity against human A549 cells measured after 24 hrs by MTT assay. Particulars: A549, 24 h. On the technique in general: Formazan colour is commonly taken as a measure of viable cells.
For assay [7], the system named is A2780. Put plainly: Cytotoxicity against human A2780 cells measured after 24 hrs by MTT assay. Particulars: A2780, 24 h.
Assay [8] relates to COLO 205. As to the kind of experiment: Cytotoxicity against human COLO 205 cells measured after 24 hrs by MTT assay. The settings on record: COLO 205, 24 h.
Assay [9] in a line: Cytotoxicity against mouse J558 cells assessed as growth inhibition measured upto 48 hrs by CCK-8 assay. The settings on record: J558, 48 h.
Assay [10] has as its system Ramos. Put plainly: Cytotoxicity against human Ramos RA.1 cells assessed as growth inhibition measured upto 48 hrs by CCK-8 assay.
Assay [11] has as its system HepG2. Put plainly: Cytotoxicity against human HepG2 cells. Particulars: read-out: TC50 (the source's name).
For assay [12], the system named is Huh-7. Put plainly: Cytotoxicity against human Huh-7 cells measured after 72 hrs by MTT assay. Particulars: Huh-7, 72 h.
The subject of assay [13] is SMMC-7721. Put plainly: Cytotoxicity against human SMMC-7721 cells measured after 72 hrs by MTT assay. The settings on record: SMMC-7721, 72 h.
Assay [14] concerns Bel7402/5-FU. As to the kind of experiment: Cytotoxicity against human BEL-7402/5-FU cells measured after 72 hrs by MTT assay.
The subject of assay [15] is HCT-116. Put plainly: Cytotoxicity against human HCT-116 cells measured after 72 hrs by MTT assay. The settings on record: HCT-116, 72 h.
Assay [16] deals with Bel-7402. Put plainly: Cytotoxicity against human Bel-7402 cells measured after 72 hrs by MTT assay. The settings on record: Bel-7402, 72 h.
The subject of assay [17] is HCT-116. Put plainly: Cytotoxicity against human HCT-116 cells by MTT assay.
In assay [18] the test system is MCF7. As to the kind of experiment: Cytotoxicity against human MCF7 cells by MTT assay.
In assay [19] the test system is OVCAR-3. As to the kind of experiment: Cytotoxicity against human OVCAR-3 cells by MTT assay.
Assay [20] deals with A549. As to the kind of experiment: Cytotoxicity against human A549 cells by MTT assay.
Assay [21] has as its system NCI-H187. Put plainly: Cytotoxicity against human NCI-H187 cells.
Assay [22] concerns PC-3. As to the kind of experiment: Antiproliferative activity against human PC-3 cells.
Assay [23] has as its system A549. Put plainly: Antiproliferative activity against human A549 cells incubated for 72 hrs by MTT assay. Particulars: A549, 72 h.
Assay [24] deals with MDA-MB-231. Put plainly: Antiproliferative activity against human MDA-MB-231 cells incubated for 72 hrs by MTT assay. The settings on record: MDA-MB-231, 72 h.
In assay [25] the test system is PANC-1. Put plainly: Antiproliferative activity against human PANC-1 cells incubated for 72 hrs by MTT assay. Particulars: PANC-1, 72 h.
The subject of assay [26] is T98G. As to the kind of experiment: Antiproliferative activity against human T98G cells incubated for 72 hrs by MTT assay.
Assay [27] has as its system Hs 683. As to the kind of experiment: Antiproliferative activity against human Hs 683 cells incubated for 72 hrs by MTT assay. Particulars: Hs 683, 72 h.
In assay [28] the test system is CCRF-CEM. As to the kind of experiment: Cytotoxicity against human drug sensitive CCRF-CEM cells assessed as fluorescence incubated for 72 hrs by resazurin reduction assay.
Assay [29] concerns Keratinocyte. As to the kind of experiment: Cytotoxicity against guinea pig ear keratinocytes using [3H]thymidine by liquid scintillation counting analysis. Particulars: Cavia porcellus.
The subject of assay [30] is ADR5000 cell line. Put plainly: Cytotoxicity against human multidrug-resistant CEM/ADR5000 cells assessed as fluorescence incubated for 72 hrs by resazurin reduction assay. The settings on record: ADR5000, 72 h. (In general: Alamar Blue is a resazurin reagent that responds to reducing activity.)
Assay [31] has as its system HCC1395. As to the kind of experiment: Antiproliferative activity against human HCC1395 cells incubated for 48 hrs by MTT assay. The settings on record: HCC1395, 48 h.
For assay [32], the system named is DU-145. Put plainly: Antiproliferative activity against human DU-145 cells incubated for 48 hrs by MTT assay. Particulars: DU-145, 48 h.
For assay [33], the system named is A549. As to the kind of experiment: Cytotoxicity against human A549 cells.
In assay [34] the test system is MCF7. As to the kind of experiment: Cytotoxicity against human MCF7 cells.
Assay [35] deals with Malme-3M. Put plainly: Cytotoxicity against human Malme-3M cells.
For assay [36], the system named is OVCAR-3. Put plainly: Cytotoxicity against human OVCAR-3 cells.

Consider 14 compounds from ChEMBL document CHEMBL5241090, “A comprehensive overview of β-carbolines and its derivatives as anticancer agents” (Eur J Med Chem, 2021).

Structures are written as SMILES. Values after ≈ are worked out from the molar mass of the structure shown.

The term IC50 denotes the concentration that inhibits the measured activity by half. For the compound `COC(=O)NCCc1c(C(=O)C[C@]2(C)c3[nH]c4cc(OC)ccc4c3CCN2C(=O)OC)[nH]c2cc(OC)ccc12`, the IC50 in [1] was 3810 nM; in assay [2], 11500 nM; in [3], 15200 nM.
For `O=C(c1cc2c([nH]c3ccccc32)c(-c2ccccc2)n1)N1CCN(S(=O)(=O)c2ccccc2)CC1`, the IC50 in assay [4] was found to be 590 nM.
In the case of `COc1cc2nc(-c3nc(-c4nccc5c4[nH]c4ccccc45)cs3)[nH]c2cc1OC`, the IC50 in assay [5] was determined as 92 nM; in [6], 720 nM; in assay [7] it was 1230 nM; in [8], 340 nM.
In the case of `CCCCn1c2ccccc2c2cc[n+](Cc3ccc(F)cc3)c(-c3ccccc3Cl)c21`, the half-maximal inhibitory concentration (IC50) in assay [9] worked out at 8020 nM; in assay [10], 9080 nM.
Consider `O=C(O)[C@@H](O)Cc1nccc2c1[nH]c1ccccc12`, for which, in assay [11], the CC50 was above 50000 nM.
For the compound `CN(C)c1ccc(-c2nc(C(=O)NCc3ccc(/C=C/C(=O)NO)cc3)cc3c2[nH]c2ccccc23)cc1`, the IC50 in assay [12], in assay [13], in assay [14], in assay [15] and in [16] was 1840 nM each time.
Turning to `COc1ccc2c3ccnc(C)c3n(CC(=O)N/N=C/c3ccc(C(C)(C)C)cc3)c2c1`, the figures for the IC50 in [17], in assay [18] and in assay [19] were 5000 nM, 4000 nM and 2500 nM, respectively.
The compound `C[C@@H](O)CCCCC(=O)c1nccc2c1[nH]c1ccccc12` had a 50% inhibitory concentration (IC50) in assay [20] of 1700 nM.
In assay [21], `COC(=O)c1cc2c([nH]c3ccccc32)c([C@H](C)O)n1` came in with an IC50 of 75100 nM.
`COc1c[n+](Cc2ccccc2)c2ccc(=O)n3c4ccccc4c1c23` returned an IC50 in assay [22] of 8000 nM.
As to `CCCn1c2cc(OCCC(C)C)ccc2c2cc[n+](Cc3ccccn3)c(C)c21`, the IC50 in assay [23], in assay [24], in assay [25], in assay [26] and in [27] was 200 nM each time.
Regarding `O=C(O)[C@H](O)Cc1nccc2c1[nH]c1ccccc12`, the CC50 in [11] came out at 39000 nM.
Take `O=c1ccc2nccc3c4ccccc4n1c23` [CANTHIN-6-ONE]: the IC50 in [28] is 15800 nM; in assay [29], 1.11 µg/mL (≈ 5.04 µM); in assay [30], 10500 nM; in assay [31], 8.12 µg/mL (≈ 36.9 µM); in [32], 9.43 µg/mL (≈ 42.8 µM).
`O=C1c2ccccc2-[n+]2ccc3c([nH]c4ccccc43)c21` [FASCAPLYSIN]: the IC50 is 0.38 µg/mL in assay [33], 0.14 µg/mL in [34], 0.03 µg/mL in assay [35] and 0.16 µg/mL in assay [36].
